# Data from ChEMBL document CHEMBL1136254, “Synthesis and SAR of 8-arylquinolines as potent corticotropin-releasing factor1 (CRF1) receptor antagonists” (Bioorg Med Chem Lett, 2003).
# Tests used:
# [1] = biological target: T1, Corticotropin-releasing factor receptor 1 (Homo sapiens, UniProt P34998); assay: Binding affinity towards cloned human Corticotropin releasing factor receptor 1 expressed in CHO cells using [125I]o-CRF as the radioligand; format: cell-based
# T1 sequence (P34998 whole entry): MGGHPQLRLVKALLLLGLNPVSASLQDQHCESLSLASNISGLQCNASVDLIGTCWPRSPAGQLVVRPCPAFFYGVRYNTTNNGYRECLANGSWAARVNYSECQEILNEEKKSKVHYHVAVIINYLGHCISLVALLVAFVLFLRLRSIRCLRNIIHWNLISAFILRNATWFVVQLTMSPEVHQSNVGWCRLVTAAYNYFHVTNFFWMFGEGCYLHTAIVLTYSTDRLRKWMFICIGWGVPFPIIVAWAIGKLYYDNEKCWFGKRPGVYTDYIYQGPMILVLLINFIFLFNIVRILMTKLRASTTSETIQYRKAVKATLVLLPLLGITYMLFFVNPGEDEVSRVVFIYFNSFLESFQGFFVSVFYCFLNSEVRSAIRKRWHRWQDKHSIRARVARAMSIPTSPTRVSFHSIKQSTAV
# [2] = biological target: T1, Corticotropin-releasing factor receptor 1; assay: Inhibition of Corticotropin releasing factor receptor 1-stimulated cAMP production; format: functional
# [3] = pKa value was determined; format: physicochemical
# [4] = Solubility at pH 4; format: physicochemical; conditions: buffer
Compound,Ki [1],IC50 [2],pKa [3],solubility [4]
CCCN(CC1CC1)c1cc(C)nc2c(-c3ccc(Cl)cc3Cl)c(C)ccc12,2.5 nM,–,–,–
CCCN(CC1CC1)c1cc(C)nc2c(-c3c(C)cc(C)cc3C)cccc12,2.2 nM,–,–,–
CSc1cc(C)nc2c(-c3ccc(Cl)cc3Cl)cccc12,16 nM,–,–,–
COCCN(CCOC)c1cc(C)nc2c(-c3c(C)cc(C)cc3C)cccc12,6.5 nM,–,–,–
CCCN(CC1CC1)c1cc(C)nc2c(-c3ccc(Cl)cc3Cl)cccc12,0.5 nM,16 nM,–,–
CCCN(CCC)c1cc(C)nc2c(-c3cnc(N(C)C)cc3C)c(C)nn12,–,–,7.1,10000 µg/mL
COCCN(CCOC)c1cc(C)nc2c(-c3ccc(Cl)cc3Cl)cccc12,5.7 nM,14 nM,–,–

# Further lines, results first:
Ki [1],IC50 [2],pKa [3],solubility [4],Compound
5.7 nM,51 nM,–,–,CCCCN(CC)c1cc(C)nc2c(-c3ccc(Cl)cc3Cl)cccc12
8.9 nM,–,–,–,CCCN(CCC)c1cc(C)nc2c(-c3ccc(Cl)cc3)cccc12
52 nM,–,–,–,CCCN(CCC)c1cc(C)nc2c(-c3ccc(OC)cc3)cccc12
